Results taken from article PMC4658182, “The Synthetic Antimicrobial Peptide 19-2.5 Interacts with Heparanase and Heparan Sulfate in Murine and Human Sepsis” (PLoS ONE, 2015).

Assays:
[1] = set-up: method as in PMID 22457281; conditions: after incubating HS with peptide 19–2.5; cited from earlier work
heparanase [2] = test: Plasma heparanase level (ELISA), human plasma, peptide added ex vivo; assay type: biochemical; conditions: 20 μg/ml peptide ex vivo, Fig 1B, n.s.
Method: As described before, we used plasma from 18 adult individuals within 24 hours after presentation with septic shock, according to the ACCP/SCCM definition after written informed consent of patients or their legal representative. Individuals below 18 years were excluded. Furthermore, we used plasma from healthy human donors after written informed consent (n = 10). No personal or identifying information was collected from study participants. All samples are stored in the RWTH centralized Biomaterial Database (RWTH cBMB) of the University Hospital RWTH Aachen. The local ethics committee (University Hospital RWTH Aachen, EK 206_09) approved this study before inclusion of the first individual.
Heparanase levels in human and murine plasma were measured using a commercial ELISA kit (No.: E03H0100, AMS Biotechnology, Oxon, United Kingdom) according to the manufacturer’s instructions. The ELISA´s detection range is 1.0 ng/ml– 5000 ng/ml.

[3] = cited from earlier work
Source text: Since heparanase is the major mammalian enzyme liberating circulating HS-fragments, we investigated heparanase activity in mice subjected to CLP. […] Additionally, the inhibition of heparanase is lung-protective in murine sepsis. Recently, it was sh ...

[4] = system: pro-inflammatory cytokines; CD14; conditions: CLP-mice, cited from earlier work
Source text: Several studies report an up to 10-fold increase of heparanase expression after stimulation with pro-inflammatory cytokines. […] Accordingly, we detected organ-specific differences of heparanase levels that m ...

heparanase [5] = test: Relative heparanase mRNA expression in organs (qPCR), CLP septic mice; assay type: in vivo, murine; conditions: 24 h after CLP
Method: (§1) The murine model of polymicrobial sepsis was divided into three steps as described before. Briefly, in a first step 12 NMRI mice underwent a catheterization procedure under general (isoflurane 1% to 2% in oxygen/air mix with a FiO2 of 0.3) and local (0.2 ml lidocaine 2%) anesthesia. A central vein catheter (PE-tube, self-made) was implanted in the jugular vein. After further local infiltration with lidocaine, the neck was closed by single suture. To prevent hypothermia all animals were kept on a heating pad throughout the surgical procedure. Mice were transferred back into the cage to rest for 48h. The i.v.-line was connected to the syringe pump at a rate of 100 μl/h (NaCl 0.9%).
(§2) In a second step, general and local anesthesia for cecal ligature and puncture (CLP) was performed as described above. The animal were transferred to the cage and reconnected with the i.v.-line. Depending on the group, peptide 19–2.5 infusion (20 μg/ml, 100 μl/h) or NaCl 0.9% infusion (100 μl/h) was started.
Finally, in a third step all animals were killed 24 h after CLP. Therefore, the animals were anesthetized as described above, brought to a prone position and the abdomen and thorax were opened. Blood was sampled in pre-citrated syringes. Directly after killing the animal under general anesthesia by cervical dislocation heart, liver, lung, kidney and spleen were snap-frozen in liquid […] until further procedures.
As described before, total RNA was extracted from snap-frozen tissue (RNeasy Mini Kit, Qiagen, Hilden, Germany) and reverse transcribed to cDNA (Quanti Tec, Rev Transcription Kit, Qiagen, Hilden, Germany). cDNA was analyzed by quantitative real-time PCR performed with Power SYBR Green PCR Master Mix on a StepOnePlus (all Applied Biosystems, Foster City, CA, USA) using a mouse specific primer (biomers, Ulm, Germany) for heparanase 5’-[…]-3’ (for) and 5’-[…]-3’ (rev). Beta-actin was used as an endogenous normalization control: 5’-[…]-3’ (for), 5’-CGG ATGTCAACGTCACACTT-3’ (rev). […]
All data are given as mean ± standard deviation (SD). As described recently, the PCR-derived mRNA expressions were analyzed using a relative expression software tool (REST, (http://www.gene-quantification.de/rest.html, rest-mcs-beta-9august 2006) performing a randomization test. This tool avoids assumptions on distributions and applies a pair wise fixed reallocation randomization test, which reallocates control and sample groups (= pair wise fixed reallocation). The expression ratios are calculated on the basis of the mean crossing point (CP) values for reference and target genes. We used a multiple t-test with Holm-Šídák correction when comparing differences between groups. […]

murine cells = conditions: cited from earlier work
Source text: The synthetic antimicrobial peptide 19–2.5 belongs to the class of synthetic anti-lipopolysaccharide peptides (SALP = synthetic anti-LPS peptides). […] Thus, we investigated the impact of peptide 19–2.5 on levels of circulating HS-fragments in vivo. […] We postulate two ways by which peptide 19–2.5 reduces levels of circulating HS-fragments in mice: […]

heparanase [6] = test: Plasma heparanase activity, CLP septic mice; assay type: in vivo, murine; conditions: CLP-mice (NMRI), 24 h after CLP; peptide i.v. infusion 20 μg/ml, 100 μl/h vs NaCl 0.9%; n = 6 per group; Fig 3A
Method: Heparanase activity in human and murine plasma was quantified using the commercial available Heparanase Assay Kit (No.: Ra001-BE-K, AMS Biotechnology, Oxon, United Kingdom) according to the manufacturer’s instructions.
as §1, §2
Finally, in a third step all animals were killed 24 h after CLP. Therefore, the animals were anesthetized as described above, brought to a prone position and the abdomen and thorax were opened. […]

peptide 19–2.5: synthetic antimicrobial peptide 19–2.5 belongs to the class of synthetic anti-lipopolysaccharide peptides (SALP = synthetic anti-LPS peptides)
effect on peptide secondary structure and on HS hydration and sulfation status [1]: alteration of the peptide’s secondary structure and a characteristic change in the hydration and sulfation status of HS
plasma heparanase level after ex vivo addition of peptide (heparanase [2]; plasma of healthy human volunteers (n = 10)): did not influence heparanase levels
plasma heparanase level after ex vivo addition of peptide (heparanase [2]; plasma of septic shock patients (n = 18)): did not influence heparanase levels
effect on LPS aggregate structure and pro-inflammatory effects [3]: changes the aggregate structure of LPS thereby neutralizing the pro-inflammatory effects of LPS
mRNA expression of CD14 ([4]; differences between organs): decreases mRNA expression of CD14
levels of pro-inflammatory cytokines [4]: decreases levels of pro-inflammatory cytokines in CLP-mice
heparanase mRNA expression under peptide treatment (heparanase [5]; all investigated organ tissues (heart, liver, lung, kidney, spleen), CLP-mice, 20 μg/ml, 100 μl/h i.v., Fig 2): decreased heparanase mRNA expression in all investigated organ tissues
relative heparanase mRNA expression, untreated CLP-mice vs peptide-treated (heparanase [5]; kidney, increase in untreated CLP-mice vs peptide 19–2.5 (20 μg/ml, 100 μl/h i.v., n = 6 per group), normalized to ß-actin, mean ± SD, Fig 2E): 5.7±1.9 fold
relative heparanase mRNA expression, untreated CLP-mice vs peptide-treated (heparanase [5]; lung, liver, spleen, heart and kidney, result in words, 20 μg/ml, 100 μl/h i.v., n = 6 per group, Fig 2A–2E, **p < 0.01, ***p < 0.0001): significantly higher in untreated CLP-mice compared to mice treated with peptide 19–2.5
relative heparanase mRNA expression, untreated CLP-mice vs peptide-treated (heparanase [5]; lung, increase in untreated CLP-mice vs peptide 19–2.5 (20 μg/ml, 100 μl/h i.v., n = 6 per group), normalized to ß-actin, mean ± SD, Fig 2A): 2.2±2.2 fold
inflammatory response in murine cells stimulated with HS-fragments (murine cells; stimulated with HS-fragments in vitro): able to decrease the inflammatory response in murine cells stimulated with HS-fragments in vitro
inflammatory response in murine cells stimulated with PAMPs and DAMPs (murine cells; stimulated with both PAMPs and DAMPs): able to decrease the inflammatory response in murine cells stimulated with both PAMPs and DAMPs
plasma heparanase activity vs untreated control (heparanase [6]): significant lower heparanase activity compared to untreated control animals
